Laboratory results: publication PMC9308172 (Journal of medicinal chemistry, 2017)

Biological target: M2TMS31N (Influenza A virus, UniProt P0DOF5, S31N)
Type: binding, influenza A (A/Udorn/307/72, S31N mutant)
Settings: for binding to M2TMS31N according to ITC (in words): pH 8

SMILES	binding to M2TMS31N according to ITC (in words)	ΔG [kcal/mol]
CCCC1(N)C2CC3CC(C2)CC1C3 (centres unmarked) [Compound 5]	bind weakly	–
C1CNC2(C1)C1CC3CC(C1)CC2C3 (centres unmarked) [Compound 6]	bind weakly	-6.68 ± 0.296
NC1(C23CC4CC(CC(C4)C2)C3)CCCC1 [Compound 9]	–	-6.745 ± 0.229
NC1(C23CC4CC(CC(C4)C2)C3)CCCCC1 [Compound 10, 1-(1-Adamantyl)cyclohexanamine]	–	-7.029 ± 0.308
